The record followed here is patent publication US11744870B2, “Traditional Chinese medicine composition for treating metabolic syndrome and preparations thereof” (JIANGSU JIUXU PHARMACEUTICAL CO., LTD., priority 2018, dated 2023).

Holding throughout (format): in vivo
The test system of assay [1] is KKAy mice with spontaneous type 2 diabetes. Briefly: Blood pressure of KKAy mice (non-invasive sphygmomanometer). The following applies: 53rd day, 150 mg/kg.
Protocol: The KKAy mice with spontaneous type 2 diabetes were divided into 5 groups based on the following five indexes: blood glucose reduction percentage within 40 min in an insulin tolerance test, fasting blood glucose, blood TG, blood TC, and weight. […] The female C57BL/6J mice were used as a normal animal control group (Nor, underwent gavage with a equal volume of water, n=10). Gavage was performed once a day for 58 consecutive days, and onOn the 53rd day of administration to the animals in each group, the blood pressure was measured by using an intelligent non-invasive sphygmomanometer (BP98A, Beijing Ruanlong Biotechnology Co., Ltd.).
For assay [2], the system named is C57BL/6J mice fed with a high-fat diet. Briefly: Insulin tolerance test in C57BL/6J mice fed with a high-fat diet. The conditions noted are these: 10th day, 150 mg/kg. As for the experimental part:
The male C57BL/6J mice were fed with a high-fat and high-nutrient diet, with 5 mice in each cage. When the mice weighed over 45 g, prediction of a plurality of indexes such as blood glucose, blood lipid, and insulin resistance were performed. Based on fasting blood glucose, blood glucose reduction percentage within 40 min in an insulin tolerance test, blood TG, blood TC, and weight, the mice were divided into 5 groups, with 12 mice in each group.
C57BL/6J mice fed a with high-fat diet and weighing more than 45 g were selected for multi-index prediction tests such as blood glucose, blood lipids, and insulin resistance, and were divided into 5 groups based on the following five indexes: blood glucose reduction percentage within 40 min in an insulin tolerance test, fasting blood glucose, blood TG, blood TC, and weight, with 12 mice in each group. […] Male C57BL/6J mice were used as a normal animal control group. Animals in the positive drug group and each test drug group underwent gavage with a corresponding dosage of the test drug each day. The normal control group and model group underwent gavage with an equal volume of water once a day for 30 days. Animals in each group underwent an insulin tolerance test on the 10th day of the administration. On the test day, the animals fasted for 4 hours (free to drink water), blood was collected from the tail tip (0 min), and then regular insulin (0.4 U/kg) was injected subcutaneously.

For assay [3], the system named is KKAy mice with spontaneous type 2 diabetes. Put plainly: Glycosylated hemoglobin (HbA1c) level in KKAy mice. The following applies: 48th day, 150 mg/kg. The procedure: (§1) The female KKAy mice with spontaneous type 2 diabetes were fed with a diet dedicated for KKAy mice, with 5 mice in each cage. When the mice weighed over 40 g, prediction of a plurality of indexes such as blood glucose, blood lipid, and insulin resistance were performed. Based on fasting blood glucose, blood glucose reduction percentage within 40 min in an insulin tolerance test, blood triglyceride (TG), total cholesterol (TC), and weight, the mice were divided into 5 groups, with 12 mice in each group.
The KKAy mice with spontaneous type 2 diabetes were divided into 5 groups based on the following five indexes: blood glucose reduction percentage within 40 min in an insulin tolerance test, fasting blood glucose, blood TG, blood TC, and weight. […] Animals in the three dosage groups underwent gavage with 500, 1000, and 1500 mg/kg of the traditional Chinese medicine extract composition of the present invention respectively. The female C57BL/6J mice were used as a normal animal control group (Nor, underwent gavage with a equal volume of water, n=10). Gavage was performed once a day for 58 consecutive days, and blood was collected from the tail tip on the 48th day to measure the glycosylated hemoglobin level.

Assay [4] shares this test system. Put plainly: Hyperinsulinemic-euglycemic clamp in KKAy mice. The following applies: after 54th day, SSBG 6.0 mmol/L, IIR 20.0 mU/kg/min, 150 mg/kg. As for the experimental part: as §1
The KKAy mice with spontaneous type 2 diabetes were divided into 5 groups based on the following five indexes: blood glucose reduction percentage within 40 min in an insulin tolerance test, fasting blood glucose, blood TG, blood TC, and weight. […] The female C57BL/6J mice were used as a normal animal control group (Nor, underwent gavage with a equal volume of water, n=10). Gavage was performed once a day for 58 consecutive days, and After the 54th day of administration to the animals in each group, 5-6 mice were randomly selected from different groups to carry out a hyperinsulinemic-euglycemic clamp test each day.

Assay [5] has the same test system. Put plainly: Fasting blood glucose, blood insulin and insulin sensitivity index in KKAy mice. The conditions noted are these: 28th day, 150 mg/kg.
Assay [6] has the same test system. Briefly: Serum triglyceride and total cholesterol in KKAy mice. The following applies: 14th day, 150 mg/kg. As for the experimental part: as §1
The KKAy mice with spontaneous type 2 diabetes were divided into 5 groups based on the following five indexes: blood glucose reduction percentage within 40 min in an insulin tolerance test, fasting blood glucose, blood TG, blood TC, and weight. […] The female C57BL/6J mice were used as a normal animal control group (Nor, underwent gavage with a equal volume of water, n=10). Gavage was performed once a day for 58 consecutive days, and at the same time when the animals in each group underwent an insulin tolerance test on the 14th day of administration, blood was collected to measure the serum triglyceride (TG) and total cholesterol (TC) levels.

As for `CN(C)C(=N)N=C(N)N` [Met, metformin], the BP in assay [1] amounted to 118.7 ± 10.8 mmHG. For the same molecule, the Glu was found to be 104.5 ± 7.6 mg/dL in assay [2] (0 min), 78.3 ± 10.3 mg/dL in assay [2] (40 min) and 87.5 ± 24.6 mg/dL in assay [2] (90 min). Moreover, the HbA1c in assay [3] is 4.34 ± 0.83 %. In addition, the GIR in assay [4] was found to be 14.5 ± 0.6 mg/kg · min. The molecule further yielded a Blood insulin in assay [5] (ELISA) of 36.3 ± 27.6 ng/mL. Moreover, the ISI in assay [5] (ISI=1/(FBGmg/dl×FBIng/ml)) is reported as 0.26 ± 0.16 ×10^−3. Besides, in assay [6], the “Serum TC” value is 243.8 ± 44.0 mg/dL. Also, the “Serum TG” value in assay [6] is listed as 253.2 ± 172.6 mg/dL.
